1 compound from article PMC11304990, “Identification of mitochondrial ATP synthase as the cellular target of Ru-polypyridyl-β-carboline complexes by affinity-based protein profiling” (National Science Review, 2024) can be followed below.

One experiment deals with A549 cells. The experiment can be described thus: Mitochondrial respiration (OCR) by Seahorse XF analyzer. The note with it: 5 μM. The class given is cell-based, human. The text has this: As Ru5 is located in mitochondria and inhibits ATPase related to mitochondrial respiration, we then evaluated its impact on oxygen consumption rate (OCR) using the Seahorse XF analyzer. Ru5 inhibits ATP-linked respiration, basal respiration and maximal respiration capacity, and it also increases the proton leak and alters non-mitochondrial respiration (Fig. 2A and Fig. S43). Accordingly, Ru5 treatment leads to an increase in the opening of the mitochondrial permeability transition pore (MPTP) of A549 in a concentration-dependent manner (Fig. 2B). […] The colocalization of the fluorescence of dihydrorhodamine 123 (DHR-123) with MitoTracker Deep Red (MTDR) indicates ROS are mainly generated in mitochondria (Fig. 2E).
Figure 2. […] (A) Impact of Ru5 (5 μM) on mitochondrial respiration of A549 cells measured by Seahorse. The OCR was measured under basal conditions, and after the sequential addition of oligomycin (1 μM), carbonyl cyanide 4-(trifluoromethoxy)phenylhydrazone (FCCP, 0.8 μM) and a mixture of rotenone (0.5 μM) and antimycin A (0.5 μM, R&A). […] The cells were treated with Ru5 for 6 h and analyzed by flow cytometry. λex = 488 nm, λem = 520 ± 20 nm. (C) Impact of Ru5 (5 μM) on MMP measured by JC-1 staining. […]

In another experiment the test system is prostate cancer (PC3). The experiment can be described thus: MTT antiproliferative assay, PC3. The following applies: 72 h. The class given is cell-based, human. The text has this:
Ru3–Ru9 also show a certain selectivity for cancer cells over normal cells, and Ru2, Ru3, Ru5 and Ru9 show higher selectivity index (SI) values than the other complexes.
PA-BPP was then used to confirm the molecular targets of Ru5 by modifying it with a ‘minimalist’ biorthogonal handle-containing photo-cross-linker. Through our structure–activity relationship analysis and comparison with other ruthenium complexes utilizing phen as the auxiliary ligands with similar coordination structures (using cisplatin as a control), we propose that the β-carboline ligands play an important role in antiproliferative activity. To maintain the binding characteristics of the β-carboline moiety with the targeted biomolecules, we linked the photo-cross-linker to one of the auxiliary ligands of Ru5.

The structures appear in SMILES notation.

Turning to `F[P-](F)(F)(F)(F)F.F[P-](F)(F)(F)(F)F.[Ru+2].c1ccc2c(c1)[nH]c1c(-c3ncc[nH]3)nccc12.c1cnc2c(c1)ccc1cccnc12.c1cnc2c(c1)ccc1cccnc12` [Ru5], the “ATP-linked respiration, basal respiration and maximal respiration capacity (OCR)” value with A549 cells is “inhibits”. In addition, in the experiment with prostate cancer (PC3), half-maximal inhibition (IC50) was put at 2700 ± 400 nM.
